Entries after “also recorded” stand apart in the source; their conditions may differ.
Assays:
[1] = literature value; cited from earlier work
zebrafish (Danio rerio) = assay: Embryo-larval zebrafish developmental toxicity assay; format: in vivo; details: for in vivo toxicity in zebrafish (in words): developmental toxicity assay
Method: In Vivo Developmental Toxicity Study. An embryo-larval zebrafish (Danio rerio) model was used to evaluate the toxicity of the novel dicationic cholinium-based ionic liquid. The following protocol was taken from previously published protocol, analyzing the toxicity of a novel triphilic polymers for use as a component in a nanoemulsion.^1 Zebrafish of the AB strain were obtained from Dr. Michael Taylor at the University of Wisconsin-Madison School of Pharmacy, where the fish were cultured until sexual maturation. Zebrafish were maintained in a light/dark cycle of 14:10 h at 28.5° C. in egg water (0.03% Instant Ocean, Blacksburg, Va., USA). The adult fish were fed Anemia nauplii twice daily. Embryos were obtained from adult fish with a ratio of 1:2 for female to male. Six breeding groups were placed in separate spawning aquariums, equipped with a mesh bottom to prevent the eggs from being cannibalized. Crossing was induced in the morning. After one hour, eggs free of macroscopically discernible symptoms of infection and disease were collected, rinsed with egg water, and transferred into Petri dishes until chemical exposure. The embryo-larval toxicity assay was subsequently carried out. 8 fertilized eggs at 2 hours post fertilization (hpf) stage were added to a 24-well plate. Each well was filled with eggs and contained 600 μL of egg water. Six concentrations plus two controls (negative and positive) were plated. For analysis of [DC-7][2Br], sodium bis(trifluoromethylsulfonyl)imide, and [DC-7][2NTf2] containing nanoemulsion the concentrations analyzed were 1 mM, 333 μM, 111 μM, 37 μM, 12.3 μM, and 4.1 μM. 1.5 mL of [DC-7][2NTf2] was added to a 15 mL conical centrifuge tube followed by 1.5 mL of egg water. The sample was allowed to sit for 6 days prior to use. Each day, the sample was sonicated at 40° C. for 6 hours and then allowed to remain at room temperature for 18 hours. After 6 days, the sample was centrifuged at 2000 rpm for 5 minutes to ensure complete sedimentation of the ionic liquid. 1.2 mL of egg water was removed and served as the stock solution. This served as the highest concentration sample. Integration of the internal standard and [DC-7][2NTf2] in the QNMR sample allowed for quantitation of the concentration of [DC-7][2NTf2] present in the stock solution used for the zebrafish viability assay. The concentrations analyzed for [DC-7][2NTf2] sample were 7.11 mM, 3.56 mM, 1.78 mM, 889 μM, 444 μM, and 222 μM.
The plates were covered and incubated at 28.5° C. in a light/dark cycle of 14:10 throughout the 96 hpf exposure period. The observations of zebrafish development were made directly in the well using a stereomicroscope (Nikon SMZ18) every 24 hours. The end points that were selected to monitor the effects of [DC-7][2Br], sodium bis(trifluoromethylsulfonyl)imide, [DC-7][2NTf2] saturated water solution and nanoemulsion included mortality, spontaneous movement, hatching success, pericardial edema, and curved body axis. Embryos and larvae were considered dead when no heartbeat was observed. The number of hatched embryos and a cumulative mortality tally were recorded every 24 h after 2 hpf. At 96 hpf, following the final observations, representative larvae for [DC-7][2Br] and [DC-7][2NTf2] saturated egg water were anesthetized with 0.4% tricaine mesylate solution and mounted on Petri dishes using low melting point agarose. These larvae were then photographed using a high-definition color microscope camera (Nikon DSFi2). Finally, all larvae used for the analysis were euthanized following.

[2] = UV/vis spectroscopy of the aggregation state of AmB; format: physicochemical; details: for aggregation state of AmB in the medium (in words): AmB solubilized in the ionic liquid or ionic liquid mixture named
Method: Measuring absorbance of Amphotericin B (AmB) at distinct wavelengths using UV/vis spectroscopy provides insight into its degree of self-aggregation. Absorption spectra were obtained on a Varian Cary 100Bio UV-vis spectrometer (Varian, Palto Alto, Calif.) at 25° C. using a quartz coverslip with a 0.1 mm pathlength (Starna Cells, Inc., Atascadero, Calif.) or a 1 mm pathlength quartz cuvette (Starna Cells, Inc., Atascadero, Calif.). Absorbance was measured from 300 nm to 500 nm. Samples were prepared by direct addition of AmB powder to neat ionic liquids. Ionic liquids solid at room temperature were first melted using a water bath at 60° C. prior to addition of AmB powder. After addition of solid drug, (1) 100 μL of methanol was then added to the IL mixture and the mixture was stirred at room temperature for 1 hour. (2) The drug/IL mixture was then placed under rotary evaporation in a water bath with at a temperature of 60° C. for 1 hour. (3) The drug/IL mixture was then placed under high vacuum for 1 hour. (4) The drug/IL mixture was then allowed to stir for 1 hour. This process (steps 1-4) was repeated until all drug visibly was solubilized. The drug/IL mixture was then placed under rotary evaporation at 60° C. for an additional hour and then under high vacuum for 24 hours prior to use to ensure removal of all methanol. Samples were shielded from light prior to analysis. Neat ionic liquids served as the baseline for AmB samples solubilized in ionic liquid. Dilution samples were performed using 1×PBS for dilution. Analysis of AmB nanoemulsion required a nanoemulsion without drug as the baseline to correct for inherent scattering of the prepared nanoemulsion.

[3] = Quantitative 19F NMR (QNMR) water-solubility of hydrophobic ionic liquids; format: physicochemical; details: saturated D2O; for solubility at 6 days: 25 °C, water, thermodynamic from solid, read-out: Ionic Liquid Concentration in D2O (water-solubility)
Method: Example 12A: Quantitative ^19F NMR spectroscopy (QNMR) for determination of concentration of hydrophobic ionic liquids in a water-solution for comparison of water-solubility of hydrophobic ionic liquids.
^19F NMR spectra was measured using a Varian UI 500 MHz spectrometer equipped with a Nalorac Quad Nucleus DD probe (qn6121, 5 mm). The internal temperature of the NMR spectrometer was maintained at 25° C. Sodium trifluoroacetate was used as an internal standard was employed in order to determine the concentration of [DC-7][2NTf2]. The internal standard was prepared in D2O and the stock solution was allowed to sonicate at 30° C. for 4 hours prior to use in order to ensure complete dissolution of sodium trifluoroacetate. Prior to quantitative study, the T1 value of both [DC-7][2NTf2] and sodium trifluoroacetate were determined using an inversion recover experiment acquired with 12 independent quadratically spaced variable (tau) values (values from 0.06944-10). The T1 value was calculated in order to ensure that both signals fully relaxed between pulses. The following parameters were employed for acquisition of T1 spectra: 500 MHz; spectra width, 107962.2 Hz; acquisition time, 1.004 s; number of points, 216688; relaxation delay, 18.996 s; number of transients, 1; 90° pulse width, 17.1 μs. X-Win32 software was used to calculate the T1 value and processing included a line broadening of 1 Hz. The T1 value of the sodium trifluoroacetate and [DC-7][2NTf2] was determined to be 2.76±0.172 seconds and 2.69±0.0885 seconds, respectively. After determination of T1, the QNMR study was completed on an optimized spectrum. […] The acquired spectrum has a signal to noise ratio of 4700, which exceeded the desired 3000 needed for quantitation. […] 0.5 mL of D2O was removed and then subsequently analyzed. Integration of the internal standard and [DC-7][2NTf2] allowed for quantitation of the concentration of [DC-7][2NTf2] present in the stock solution used for the zebrafish viability assay.

[4] = Viscosity (Brookfield viscometer); format: physicochemical; details: 30.2 ° C.
Method: A Brookfield viscometer (Model RVDV-1) was used to analyze the ionic liquids at 30° C. The spindle used on the instrument was CPA-41Z. After addition of 2 mL of sample to the instrument cup, the cup was warmed until all IL samples were completely transparent before beginning the measurement. The RPM was adjusted per sample in order to ensure the percent torque applied per sample was in a consistent range.

For C[C@@H]1[C@H](O)[C@@H](C)/C=C/C=C/C=C/C=C/C=C/C=C/C=C/[C@H](O[C@@H]2O[C@H](C)[C@@H](O)[C@H](N)[C@@H]2O)C[C@@H]2O[C@](O)(C[C@@H](O)C[C@@H](O)[C@H](O)CC[C@@H](O)C[C@@H](O)CC(=O)O[C@H]1C)C[C@H](O)[C@H]2C(=O)O [AmB, Amphotericin B], the water solubility [1] is given as < 1.0 µg/mL.

With O=C(O)C(F)(F)C(F)(F)C(F)(F)C(F)(F)C(F)(F)C(F)(F)C(F)(F)F [PFOA, perfluorooctanoic acid, reference compound] the “zebrafish malformations, microscope images (in words)” value (zebrafish (Danio rerio); 96 hours post-fertilization, concentration not stated (FIG. 64)) was “spinal curvature”.

In the case of CCCCCC(=O)[O-].C[N+](C)(C)CCO [[Chol][Hex], cholinium hexanoate], the “aggregation state of AmB in the medium (in words)” value [2] was “solely the monomeric form” and the “aggregation state of AmB upon dilution (in words)” value ([2]; dilution with phosphate-buffered saline / saline) was “shifts from primarily the monomeric to the aggregated form; also recorded: concentration dependent aggregation; also recorded: shifted from monomeric to aggregated”.

In the case of C[N+](C)(CCO)CCCCCCC[N+](C)(C)CCO [[DC-7][2NTf2]], the solubility at 6 days [3] was 10.7 mM, the “Ionic Liquid Concentration in D2O (water-solubility)” value ([3]; 25° C.) was 6 mM and the “aggregation state of AmB in the medium (in words)” value [2] was “mixture of the aggregated form and monomeric form; also recorded: mixture of monomeric and aggregated AmB”. For the same compound, the “zebrafish malformations (in words)” value (zebrafish (Danio rerio); 889 μM, 96 hours post fertilization) was “no malformations”, the “zebrafish survival rate / viability” value (zebrafish (Danio rerio); 889 μM, dilution of saturated water solution, 96 hours post fertilization) was 100% and the “in vivo toxicity in zebrafish (in words)” value (zebrafish (Danio rerio); 96 hours post fertilization) was “does not exhibit toxicity; also recorded: minimal toxicity”. For the same compound, the “in vivo toxicity in zebrafish (in words)” value (zebrafish (Danio rerio); 96 hours post fertilization, listed as [CDIL-7][NTf2]) was “extremely low”.

In the case of C[N+](C)(CCO)CCOCCOCC[N+](C)(C)CCO [[DC-ether][2NTf2]], the Viscosity [4] was 891.5 cP and the solubility at 6 days [3] was 13 mM.

With O=S(=O)([N-]S(=O)(=O)C(F)(F)F)C(F)(F)F.[Na+] [sodium bis(trifluoromethylsulfonyl)imide, reference compound] the zebrafish survival rate (zebrafish (Danio rerio); 111 μM, 96 hours post fertilization) was 87% and the “in vivo toxicity in zebrafish (in words)” value (zebrafish (Danio rerio); 96 hours post fertilization) was “minimal toxicity”.
